# Test results: publication PMC5374441 (Scientific Reports, 2017)
# Bridge positions count the residues as written; N and C are the ends. Peptide text beside a SMILES is read from it.
# Biological target: T1, Q55K Ls-AChBP mutant (Lymnaea stagnalis, UniProt P58154, Q74K)
# T1 construct: made in house; Top10 E. coli is named only for plasmid propagation
# Assay: biochemical
# Format: binding
# Details: SEM
smiles,measurement,value
"CC[C@H](C)[C@@H]1NC(=O)[C@H](CC(N)=O)NC(=O)[C@@H]2CCCN2C(=O)[C@H](CC(N)=O)NC(=O)[C@H](CC(N)=O)NC(=O)[C@H](C(C)C)NC(=O)[C@H](CCCNC(=N)N)NC(=O)[C@@H]2CSSC[C@H](NC(=O)CNC(=O)[C@@H](N)CO)C(=O)N[C@@H](CSSC[C@@H](C(N)=O)NC1=O)C(=O)N[C@@H](CO)C(=O)N[C@@H](CC(N)=O)C(=O)N1CCC[C@H]1C(=O)N[C@@H](C)C(=O)N2 [LsIA] (H-SGCCSNPACRVNNPNIC-NH2; disulfide 3-9, 4-17)",IC50,17.4 ± 10.7 µM
